This note sets out measurements from patent US20250302832A1, “PYRAZINE DERIVATIVES AND USES THEREOF” (FOGHORN THERAPEUTICS INC., priority 2022, published 2025).

Experiment [1] deals with T1, HiBit-BRM fusion protein (Homo sapiens, UniProt P51531).
T1 construct: expressed in transfected cells
The experiment can be described thus: HiBiT-BRM cell-based degradation assay (Nano-Glo HiBiT lytic detection, 24 h). As to conditions: HeLa cell line expressing HiBiT-BRM; for DC50: read-out: BRM HiBit Degradation IC50. Put shortly:
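Stable HeLa HiBiT-BRM cells treated 24 h with compounds (10-point 3-fold dilutions, 30 μM final top dose, duplicate). HiBiT levels read by Nano-Glo lytic luminescence; % degradation normalised to DMSO (high control) and 2 μM reference BRM/BRG1 degrader (low control).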
A general note: HiBiT is a short tag that completes a luciferase, so light tracks the accessible tagged protein.

The target in experiment [2] is T2, HiBit-BRG1 fusion protein (Homo sapiens, UniProt P51532).
T2 construct: expressed in transfected cells
The experiment can be described thus: HiBiT-BRG1 cell-based degradation assay (Nano-Glo HiBiT lytic detection, 24 h). As to conditions: HeLa cell line expressing HiBit-BRG1 and LgBit; for Dmax: read-out: BRG1 HiBit Degradation Maximum (%); for DC50: read-out: BRMG1 HiBit Degradation IC50. The method in brief:
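HeLa cells stably expressing HiBiT-BRG1 and LgBiT, 5000 per well, compound-treated 24 h, equilibrated 15 min at room temperature, then lysed with LgBiT-containing Nano-Glo HiBiT lytic reagent and luminescence read. % degradation normalised between DMSO (high control) and 2 μM reference BRM/BRG1 degrader (low control).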

Bounds are passed on as bounds.

T2 sequence (P51532 whole entry, the tested form may be a part): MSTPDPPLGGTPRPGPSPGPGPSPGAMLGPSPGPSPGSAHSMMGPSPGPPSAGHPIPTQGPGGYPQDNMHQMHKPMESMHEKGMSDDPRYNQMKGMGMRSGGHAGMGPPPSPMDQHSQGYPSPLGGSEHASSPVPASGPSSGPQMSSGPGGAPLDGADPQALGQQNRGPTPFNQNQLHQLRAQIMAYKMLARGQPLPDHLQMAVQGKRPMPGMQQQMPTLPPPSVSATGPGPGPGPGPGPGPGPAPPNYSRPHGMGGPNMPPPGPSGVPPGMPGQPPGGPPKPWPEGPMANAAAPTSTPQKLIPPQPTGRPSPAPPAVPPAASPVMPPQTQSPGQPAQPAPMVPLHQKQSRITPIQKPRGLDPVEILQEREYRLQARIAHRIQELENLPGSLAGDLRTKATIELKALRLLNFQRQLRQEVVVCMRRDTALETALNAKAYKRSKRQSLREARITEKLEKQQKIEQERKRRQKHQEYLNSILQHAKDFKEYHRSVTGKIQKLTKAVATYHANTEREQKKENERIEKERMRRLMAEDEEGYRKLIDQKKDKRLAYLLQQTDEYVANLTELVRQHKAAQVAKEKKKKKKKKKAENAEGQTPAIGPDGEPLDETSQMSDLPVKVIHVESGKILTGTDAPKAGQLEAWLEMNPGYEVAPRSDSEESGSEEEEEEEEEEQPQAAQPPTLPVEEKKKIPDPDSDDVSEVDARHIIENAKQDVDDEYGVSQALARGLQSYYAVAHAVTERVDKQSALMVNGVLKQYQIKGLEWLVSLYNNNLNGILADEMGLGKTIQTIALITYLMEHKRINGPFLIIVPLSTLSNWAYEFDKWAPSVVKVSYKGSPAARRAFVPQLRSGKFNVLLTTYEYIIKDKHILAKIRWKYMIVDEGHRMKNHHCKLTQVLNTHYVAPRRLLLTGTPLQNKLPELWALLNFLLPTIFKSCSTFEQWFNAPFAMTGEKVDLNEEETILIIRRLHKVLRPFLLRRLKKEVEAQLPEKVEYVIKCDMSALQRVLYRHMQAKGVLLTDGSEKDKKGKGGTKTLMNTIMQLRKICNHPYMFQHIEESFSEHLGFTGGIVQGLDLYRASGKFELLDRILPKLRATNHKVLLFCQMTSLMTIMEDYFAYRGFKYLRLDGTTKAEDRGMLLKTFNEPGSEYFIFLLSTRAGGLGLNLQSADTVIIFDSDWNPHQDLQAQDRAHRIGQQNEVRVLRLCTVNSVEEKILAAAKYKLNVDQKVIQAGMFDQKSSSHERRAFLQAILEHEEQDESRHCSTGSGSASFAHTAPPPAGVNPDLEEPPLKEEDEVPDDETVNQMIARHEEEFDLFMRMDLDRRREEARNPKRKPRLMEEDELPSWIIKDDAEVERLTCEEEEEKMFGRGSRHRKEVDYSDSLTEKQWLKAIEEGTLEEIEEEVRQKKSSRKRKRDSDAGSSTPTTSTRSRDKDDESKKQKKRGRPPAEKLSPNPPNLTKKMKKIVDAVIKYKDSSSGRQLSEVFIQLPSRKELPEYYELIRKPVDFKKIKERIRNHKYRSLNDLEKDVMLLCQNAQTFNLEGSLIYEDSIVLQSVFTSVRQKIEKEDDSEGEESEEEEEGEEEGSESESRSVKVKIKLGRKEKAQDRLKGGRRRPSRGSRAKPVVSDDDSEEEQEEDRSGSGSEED
T1 sequence (P51531 whole entry, the tested form may be a part): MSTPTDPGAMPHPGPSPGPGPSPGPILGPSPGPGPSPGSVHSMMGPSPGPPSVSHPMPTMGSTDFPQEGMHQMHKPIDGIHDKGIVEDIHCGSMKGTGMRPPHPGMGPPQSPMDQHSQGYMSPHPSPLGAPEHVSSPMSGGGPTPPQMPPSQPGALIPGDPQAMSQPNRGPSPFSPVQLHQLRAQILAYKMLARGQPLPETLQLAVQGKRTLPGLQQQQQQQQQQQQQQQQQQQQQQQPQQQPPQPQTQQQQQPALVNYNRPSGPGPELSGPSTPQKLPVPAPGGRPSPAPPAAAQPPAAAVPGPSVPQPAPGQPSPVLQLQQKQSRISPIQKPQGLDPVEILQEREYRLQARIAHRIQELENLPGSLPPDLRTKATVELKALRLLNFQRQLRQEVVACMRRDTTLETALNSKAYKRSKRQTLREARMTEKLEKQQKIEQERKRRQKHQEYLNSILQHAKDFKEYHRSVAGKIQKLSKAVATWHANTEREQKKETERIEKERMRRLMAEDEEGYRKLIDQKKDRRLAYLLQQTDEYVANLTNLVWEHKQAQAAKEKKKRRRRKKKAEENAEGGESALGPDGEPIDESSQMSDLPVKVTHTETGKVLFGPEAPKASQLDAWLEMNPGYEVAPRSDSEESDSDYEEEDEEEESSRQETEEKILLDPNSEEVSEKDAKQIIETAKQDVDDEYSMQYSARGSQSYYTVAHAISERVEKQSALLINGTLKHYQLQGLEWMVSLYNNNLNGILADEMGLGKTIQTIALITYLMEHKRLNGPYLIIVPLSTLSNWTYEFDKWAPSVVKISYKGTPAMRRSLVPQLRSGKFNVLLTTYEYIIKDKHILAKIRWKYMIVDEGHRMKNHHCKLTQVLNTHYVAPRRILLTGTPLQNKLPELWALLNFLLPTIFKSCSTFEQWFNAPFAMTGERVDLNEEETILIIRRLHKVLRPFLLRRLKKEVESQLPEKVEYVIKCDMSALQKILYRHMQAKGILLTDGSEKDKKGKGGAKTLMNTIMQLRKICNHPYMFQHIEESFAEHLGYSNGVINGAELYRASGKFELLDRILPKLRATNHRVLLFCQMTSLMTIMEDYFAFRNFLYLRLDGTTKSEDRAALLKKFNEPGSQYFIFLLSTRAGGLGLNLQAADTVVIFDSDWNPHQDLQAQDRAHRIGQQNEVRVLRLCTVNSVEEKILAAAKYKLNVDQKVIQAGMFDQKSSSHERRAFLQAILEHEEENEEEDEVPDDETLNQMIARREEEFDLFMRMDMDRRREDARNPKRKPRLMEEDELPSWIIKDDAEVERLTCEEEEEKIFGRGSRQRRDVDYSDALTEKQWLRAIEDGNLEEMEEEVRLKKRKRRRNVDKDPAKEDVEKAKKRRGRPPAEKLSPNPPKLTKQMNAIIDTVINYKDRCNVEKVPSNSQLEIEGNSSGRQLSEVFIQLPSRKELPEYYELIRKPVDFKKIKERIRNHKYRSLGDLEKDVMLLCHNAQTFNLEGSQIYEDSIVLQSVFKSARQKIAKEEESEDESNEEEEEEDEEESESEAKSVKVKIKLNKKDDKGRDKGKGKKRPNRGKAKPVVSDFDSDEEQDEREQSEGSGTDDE

As for `Cc1ncsc1-c1ccc([C@H](C)NC(=O)[C@@H]2C[C@@H](O)CN2C(=O)[C@@H](c2cc(N(C)CCN3CC(c4cc5nnc(-c6ccccc6O)cc5[nH]4)C3)no2)C(C)C)cc1` [Compound 2, (2S,4R)-4-hydroxy-1-((R)-2-(3-((2-(3-(3-(2-hydroxyphenyl)-5H-pyrrolo[3,2-c]pyridazin-6-yl)azetidin-1-yl)ethyl)(methyl)amino)isoxazol-5-yl)-3-methylbutanoyl)-N-((S)-1-(4-(4-methylthiazol-5-yl)phenyl)ethyl)pyrrolidine-2-carboxamide], in experiment [1], the “BRM HiBit Degradation Maximum (%)” value is reported as “A (“A” indicates maximum degradation ≥75%)” and the DC50 was > 100 nM. The Dmax in experiment [2] was < 50%.

For `Cc1ncsc1-c1ccc([C@H](C)NC(=O)[C@@H]2C[C@@H](O)CN2C(=O)[C@@H](c2cc(-c3cnc(N4CC[C@H](c5cc6nnc(-c7ccccc7O)cc6n5CC5CC5)C4)nc3)no2)C(C)C)cc1` [Compound 115, (2S,4R)-1-((R)-2-(3-(2-((S)-3-(5-(cyclopropylmethyl)-3-(2-hydroxyphenyl)-5H-pyrrolo[3,2-c]pyridazin-6-yl)pyrrolidin-1-yl)pyrimidin-5-yl)isoxazol-5-yl)-3-methylbutanoyl)-4-hydroxy-N-((S)-1-(4-(4-methylthiazol-5-yl)phenyl)ethyl)pyrrolidine-2-carboxamide], in experiment [1], the “BRM HiBit Degradation Maximum (%)” value is listed as “A (“A” indicates maximum degradation ≥75%)” and the DC50 was < 10 nM. For the same compound, in experiment [2], the Dmax is > 50% and the DC50 is > 10 nM.

For the compound `Cc1ncsc1-c1ccc([C@H](C)NC(=O)[C@@H]2C[C@@H](O)CN2C(=O)[C@@H](c2cc(-c3cnc(N4CC[C@@H](c5cc6nnc(-c7ccccc7O)cc6n5C5CC5)C4)nc3)no2)C(C)C)cc1` [Compound 36, (2S,4R)-1-((R)-2-(3-(2-((R)-3-(5-cyclopropyl-3-(2-hydroxyphenyl)-5H-pyrrolo[3,2-c]pyridazin-6-yl)pyrrolidin-1-yl)pyrimidin-5-yl)isoxazol-5-yl)-3-methylbutanoyl)-4-hydroxy-N—((S)-1-(4-(4-methylthiazol-5-yl)phenyl)ethyl)pyrrolidine-2-carboxamide], in experiment [1], the “BRM HiBit Degradation Maximum (%)” value is recorded as “A (“A” indicates maximum degradation ≥75%)” and the DC50 was < 10 nM. Besides, in experiment [2], the Dmax is > 75% and the DC50 is < 10 nM.

On to `Cc1ncsc1-c1ccc([C@H](C)NC(=O)[C@@H]2C[C@@H](O)CN2C(=O)[C@@H](c2cc(N3CCC4(CC3)CC(c3cc5nnc(-c6ccccc6O)cc5n3CC3CC3)C4)no2)C(C)C)cc1` [Compound 86, (2S,4R)-1-((R)-2-(3-(2-(5-(cyclopropylmethyl)-3-(2-hydroxyphenyl)-5H-pyrrolo[3,2-c]pyridazin-6-yl)-7-azaspiro[3.5]nonan-7-yl)isoxazol-5-yl)-3-methylbutanoyl)-4-hydroxy-N-((S)-1-(4-(4-methylthiazol-5-yl)phenyl)ethyl)pyrrolidine-2-carboxamide], for which, in experiment [1], the “BRM HiBit Degradation Maximum (%)” value was “A (“A” indicates maximum degradation ≥75%)” and the DC50 was < 10 nM. The Dmax in experiment [2] was < 50%.

With `Cc1ncsc1-c1ccc([C@H](C)NC(=O)[C@@H]2C[C@@H](O)CN2C(=O)[C@@H](c2cc(OCCN3CCC(c4cc5nnc(-c6ccccc6O)cc5[nH]4)CC3)no2)C(C)C)cc1` [Compound 17, (2S,4R)-4-hydroxy-1-[(2R)-2-[3-(2-{4-[3-(2-hydroxyphenyl)-5H-pyrrolo[3,2-c]pyridazin-6-yl]piperidin-1-yl}ethoxy)-1,2-oxazol-5-yl]-3-methylbutanoyl]-N-[(1S)-1-[4-(4-methyl-1,3-thiazol-5-yl)phenyl]ethyl]pyrrolidine-2-carboxamide], in experiment [1], the “BRM HiBit Degradation Maximum (%)” value is recorded as “A (“A” indicates maximum degradation ≥75%)” and the DC50 was < 10 nM. Also, in experiment [2], the Dmax is > 75% and the DC50 is > 10 nM.

For the compound `Cc1ncsc1-c1ccc([C@H](C)NC(=O)[C@@H]2C[C@@H](O)CN2C(=O)[C@@H](c2cc(OCCN3CCC(O)(c4cc5nnc(-c6ccccc6O)cc5n4C)CC3)no2)C(C)C)cc1` [Compound 30, (2S,4R)-4-hydroxy-1-[(2R)-2-[3-(2-{4-hydroxy-4-[3-(2-hydroxyphenyl)-5-methylpyrrolo[3,2-c]pyridazin-6-yl]piperidin-1-yl}ethoxy)-1,2-oxazol-5-yl]-3-methylbutanoyl]-N-[(1S)-1-[4-(4-methyl-1,3-thiazol-5-yl)phenyl]ethyl]pyrrolidine-2-carboxamide], in experiment [1], the “BRM HiBit Degradation Maximum (%)” value was “A (“A” indicates maximum degradation ≥75%)” and the DC50 was > 10 nM. Besides, in experiment [2], the Dmax is > 75% and the DC50 is > 100 nM.

Take `Cc1ncsc1-c1ccc([C@H](C)NC(=O)[C@@H]2C[C@@H](O)CN2C(=O)[C@@H](c2cc(-c3cnc(N4CC[C@H](c5cc6nnc(-c7cc(F)cc(Cl)c7O)cc6n5C5CC5)C4)nc3)no2)C(C)C)cc1` [Compound 73, (2S,4R)-1-((R)-2-(3-(2-((S)-3-(3-(3-chloro-5-fluoro-2-hydroxyphenyl)-5-cyclopropyl-5H-pyrrolo[3,2-c]pyridazin-6-yl)pyrrolidin-1-yl)pyrimidin-5-yl)isoxazol-5-yl)-3-methylbutanoyl)-4-hydroxy-N-((S)-1-(4-(4-methylthiazol-5-yl)phenyl)ethyl)pyrrolidine-2-carboxamide]: in experiment [1], the “BRM HiBit Degradation Maximum (%)” value is “B (“B” indicates maximum degradation ≥50%)” and the DC50 was > 10 nM. In addition, in experiment [2], the Dmax is > 50% and the DC50 was > 10 nM.

Take `Cc1ncsc1-c1ccc([C@H](C)NC(=O)[C@@H]2C[C@@H](O)CN2C(=O)[C@@H](c2cc(N3CCC(C(=O)N4CC(c5cc6nnc(-c7ccccc7O)cc6[nH]5)C4)CC3)no2)C(C)C)cc1` [Compound 6]: in experiment [1], the “BRM HiBit Degradation Maximum (%)” value is given as “A (“A” indicates maximum degradation ≥75%)” and the DC50 was > 10 nM. Further, in experiment [2], the Dmax was > 75% and the DC50 is > 100 nM.

Take `Cc1ncsc1-c1ccc([C@H](C)NC(=O)[C@@H]2C[C@@H](O)CN2C(=O)[C@@H](c2cc(OCC(=O)N3CC(c4cc5nnc(-c6ccccc6O)cc5[nH]4)C3)no2)C(C)C)cc1` [Compound 7, (2S,4R)-4-hydroxy-1-((R)-2-(3-(2-(3-(3-(2-hydroxyphenyl)-5H-pyrrolo[3,2-c]pyridazin-6-yl)azetidin-1-yl)-2-oxoethoxy)isoxazol-5-yl)-3-methylbutanoyl)-N-((S)-1-(4-(4-methylthiazol-5-yl)phenyl)ethyl)pyrrolidine-2-carboxamide]: in experiment [1], the “BRM HiBit Degradation Maximum (%)” value is reported as “A (“A” indicates maximum degradation ≥75%)” and the DC50 was > 100 nM. Besides, the Dmax in experiment [2] is < 50%.

Take `Cc1ncsc1-c1ccc([C@H](C)NC(=O)[C@@H]2C[C@@H](O)CN2C(=O)[C@@H](c2cc(OCCN3CC(n4ccc5nnc(-c6ccccc6O)cc54)C3)no2)C(C)C)cc1` [Compound 31, (2S,4R)-4-hydroxy-1-[(2R)-2-[3-(2-{3-[3-(2-hydroxyphenyl)pyrrolo[3,2-c]pyridazin-5-yl]azetidin-1-yl}ethoxy)-1,2-oxazol-5-yl]-3-methylbutanoyl]-N-[(1S)-1-[4-(4-methyl-1,3-thiazol-5-yl)phenyl]ethyl]pyrrolidine-2-carboxamide]: in experiment [1], the “BRM HiBit Degradation Maximum (%)” value is given as “B (“B” indicates maximum degradation ≥50%)” and the DC50 was > 10 nM. The Dmax in experiment [2] was < 50%.
